pIC50: −log10 of the molar value.
Assays:
MV4-11 cells = assay: MV4-11 cellular proliferative assay, Assay Format B (CTG 2.0, 168 h); format: cell-based; conditions: Homo sapiens, Assay format B, 168 h, read-out: IC50 (MV4-11 cellular proliferative assay)
Procedure: MV4-11 cells at a confluency of ~50-80% was used for cell growth assay. 600 cells/well in a 384-well opaque cell culture plate (6007680; Perkin Elmer) were seeded in 40 μL of complete medium (IMDM+10% FBS+1× Penicillin-Streptomycin). Cells were incubated overnight at 37° C., 5% CO2. 10 mM DMSO stocks were prepared, cells were treated with 10 concentrations of test compounds starting from 1 uM or 100 nM, 3-fold dilution in 10 uL (5× concentration) of complete medium. Final DMSO concentration was 0.3%. Culture plates were centrifuged at 40×g, 30s. Cells were incubated with compounds for 168 h (7 days). After 7 days, 20 uL CTG 2.0 reagent (G9242; Promega) was added per well and luminescence reading was taken in Envision Xcite 2105 multimode plate reader. Data was analyzed in GraphPad Prism 10.0 and data was shown as % viability with respect to DMSO control and dose-response curves were generated using four parameter logistic regression. Assay quality was determined by z-factor calculation using positive and negative controls.

MLLT1 = target: T1, MLLT1 (Homo sapiens, UniProt Q03111); assay: MLLT1 degradation assay in MV4-11 cells (JESS, 24 h); format: cell-based; design: endogenous in cells; host or cells: MV4-11 (ATCC CRL-9591); conditions: vs DMSO control
T1 sequence (Q03111 1-559): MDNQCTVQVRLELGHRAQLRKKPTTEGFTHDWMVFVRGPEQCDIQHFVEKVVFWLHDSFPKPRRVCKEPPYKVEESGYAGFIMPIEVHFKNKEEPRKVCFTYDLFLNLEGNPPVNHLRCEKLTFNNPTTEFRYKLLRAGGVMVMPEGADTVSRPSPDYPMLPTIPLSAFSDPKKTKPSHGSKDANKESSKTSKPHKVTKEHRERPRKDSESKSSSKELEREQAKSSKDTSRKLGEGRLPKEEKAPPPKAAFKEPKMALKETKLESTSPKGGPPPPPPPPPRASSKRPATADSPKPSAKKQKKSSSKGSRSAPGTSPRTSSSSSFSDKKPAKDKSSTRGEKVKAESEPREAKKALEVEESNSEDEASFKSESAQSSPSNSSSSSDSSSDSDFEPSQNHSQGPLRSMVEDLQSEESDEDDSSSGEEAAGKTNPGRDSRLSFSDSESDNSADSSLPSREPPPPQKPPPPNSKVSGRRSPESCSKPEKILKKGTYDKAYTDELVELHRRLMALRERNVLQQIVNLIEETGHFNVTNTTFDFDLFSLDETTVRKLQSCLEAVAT
Procedure, shortened: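 MV4-11 cells treated at 1000, 100 and 10 nM (0.1% DMSO) for 24 h at 37° C; lysates (4 ug protein) run on JESS capillary immunoassay with MLLT1 and GAPDH antibodies. Peak areas give % degradation versus DMSO, binned A (≥75%) to D (<25%).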

Row | SMILES | pIC50 (MV4-11 cells) | MLLT1% Degradation @ 0.01 μM (MLLT1) | MLLT1% Degradation @ 0.1 μM (MLLT1) | MLLT1% Degradation @ 1 μM (MLLT1)
1 | Cc1c([C@H]2CCCN2C)[nH]c2cc(NC(=O)c3ccc4c(C)nn(CCCCCCCC#Cc5cccc6c5CN(C5CCC(=O)NC5=O)C6=O)c4c3)ncc12 (stereo partly drawn) [Example 57, 1-(9-(2-(2,6-dioxopiperidin-3-yl)-1-oxoisoindolin-4-yl)non-8-yn-1-yl)-3-methyl-N-(3-methyl-2-((R)-1-methylpyrrolidin-2-yl)-1H-pyrrolo[3,2-c]pyridin-6-yl)-1H-indazole-6-carboxamide] | > 7.00 | A (Category A: A≥75% degradation) | A (Category A: A≥75% degradation) | A (Category A: A≥75% degradation)
2 | Cc1nn(CCCCCCCC#Cc2cccc3c2CN(C2CCC(=O)NC2=O)C3=O)c2cc(C(=O)Nc3cc4[nH]c([C@H]5CCCN5C)cc4cn3)c(F)cc12 (stereo partly drawn) [Example 58, 1-(9-(2-(2,6-dioxopiperidin-3-yl)-1-oxoisoindolin-4-yl)non-8-yn-1-yl)-5-fluoro-3-methyl-N-(2-((R)-1-methylpyrrolidin-2-yl)-1H-pyrrolo[3,2-c]pyridin-6-yl)-1H-indazole-6-carboxamide] | > 7.00 | A (Category A: A≥75% degradation) | A (Category A: A≥75% degradation) | A (Category A: A≥75% degradation)
3 | CN1CCC[C@@H]1c1cc2cnc(NC(=O)c3ccc4c(C5CC5)nn(CCCCCCCC#Cc5cccc6c5CN(C5CCC(=O)NC5=O)C6=O)c4c3)cc2[nH]1 (stereo partly drawn) [Example 59, 3-cyclopropyl-1-(9-(2-(2,6-dioxopiperidin-3-yl)-1-oxoisoindolin-4-yl)non-8-yn-1-yl)-N-(2-((R)-1-methylpyrrolidin-2-yl)-1H-pyrrolo [3,2-c]pyridin-6-yl)-1H-indazole-6-carboxamide] | > 7.00 | A (Category A: A≥75% degradation) | A (Category A: A≥75% degradation) | A (Category A: A≥75% degradation)
4 | Cc1nn(CCCCCCCC#Cc2cccc(C3CCC(=O)NC3=O)c2F)c2cc(C(=O)Nc3cc4[nH]c([C@H]5CCCN5C)cc4cn3)ccc12 (stereo partly drawn) [Example 61, 1-(9-(3-(2,6-dioxopiperidin-3-yl)-2-fluorophenyl)non-8-yn-1-yl)-3-methyl-N-(2-((R)-1-methylpyrrolidin-2-yl)-1H-pyrrolo [3,2-c]pyridin-6-yl)-1H-indazole-6-carboxamide] | > 7.00 | C (Category C: 25%≤C<50% degradation) | A (Category A: A≥75% degradation) | A (Category A: A≥75% degradation)
5 | Cc1nn(CCCCCCCC#Cc2cccc3c2CN(C2CCC(=O)NC2=O)C3=O)c2cc(C(=O)Nc3cc4[nH]c([C@H]5CCCN5C)c(C#N)c4cn3)ccc12 (stereo partly drawn) [Example 66, N-(3-cyano-2-((R)-1-methylpyrrolidin-2-yl)-1H-pyrrolo[3,2-c]pyridin-6-yl)-1-(9-(2-(2,6-dioxopiperidin-3-yl)-1-oxoisoindolin-4-yl)non-8-yn-1-yl)-3-methyl-1H-indazole-6-carboxamide] | > 7.00 | A (Category A: A≥75% degradation) | A (Category A: A≥75% degradation) | A (Category A: A≥75% degradation)
6 | Cc1nn(CCCCCCCC#Cc2ccc(F)c3c2CN(C2CCC(=O)NC2=O)C3=O)c2cc(C(=O)Nc3cc4[nH]c([C@H]5CCCN5C)c(Cl)c4cn3)ccc12 (stereo partly drawn) [Example 67, N-(3-chloro-2-((R)-1-methylpyrrolidin-2-yl)-1H-pyrrolo[3,2-c]pyridin-6-yl)-1-(9-(2-(2,6-dioxopiperidin-3-yl)-7-fluoro-1-oxoisoindolin-4-yl)non-8-yn-1-yl)-3-methyl-1H-indazole-6-carboxamide] | > 7.00 | A (Category A: A≥75% degradation) | A (Category A: A≥75% degradation) | A (Category A: A≥75% degradation)
7 | Cc1nn(C2CCN(CC#Cc3cccc4c3CN(C3CCC(=O)NC3=O)C4=O)CC2)c2cc(C(=O)Nc3cc4[nH]c([C@H]5CCCN5C)cc4cn3)ccc12 (stereo partly drawn) [Example 68, 1-(1-(3-(2-(2,6-dioxopiperidin-3-yl)-1-oxoisoindolin-4-yl)prop-2-yn-1-yl)piperidin-4-yl)-3-methyl-N-(2-((R)-1-methylpyrrolidin-2-yl)-1H-pyrrolo[3,2-c]pyridin-6-yl)-1H-indazole-6-carboxamide] | > 7.00 | A (Category A: A≥75% degradation) | A (Category A: A≥75% degradation) | B (Category B: 50%≤B<75% degradation)
8 | Cc1nn(C2CCN(CC3CCN(c4cc5c(cc4F)C(=O)N(C4CCC(=O)NC4=O)C5=O)CC3)CC2)c2cc(C(=O)Nc3cc4[nH]c([C@H]5CCCN5C)cc4cn3)ccc12 (stereo partly drawn) [Example 69, 1-(1-((1-(2-(2,6-dioxopiperidin-3-yl)-6-fluoro-1,3-dioxoisoindolin-5-yl)piperidin-4-yl)methyl)piperidin-4-yl)-3-methyl-N-(2-((R)-1-methylpyrrolidin-2-yl)-1H-pyrrolo[3,2-c]pyridin-6-yl)-1H-indazole-6-carboxamide] | > 7.00 | A (Category A: A≥75% degradation) | A (Category A: A≥75% degradation) | A (Category A: A≥75% degradation)
9 | Cc1nn(C2CCN(CC3CCN(c4ccc5c(c4)C(=O)N(C4CCC(=O)NC4=O)C5=O)CC3)CC2)c2cc(C(=O)Nc3cc4[nH]c([C@H]5CCCN5C)cc4cn3)ccc12 (stereo partly drawn) [Example 70, 1-(1-((1-(2-(2,6-dioxopiperidin-3-yl)-1,3-dioxoisoindolin-5-yl)piperidin-4-yl)methyl)piperidin-4-yl)-3-methyl-N-(2-((R)-1-methylpyrrolidin-2-yl)-1H-pyrrolo[3,2-c]pyridin-6-yl)-1H-indazole-6-carboxamide] | > 7.00 | A (Category A: A≥75% degradation) | A (Category A: A≥75% degradation) | A (Category A: A≥75% degradation)
10 | Cc1nn(C2CCN(CC3CCN(c4cccc5c4C(=O)N(C4CCC(=O)NC4=O)C5=O)CC3)CC2)c2cc(C(=O)Nc3cc4[nH]c([C@H]5CCCN5C)cc4cn3)ccc12 (stereo partly drawn) [Example 71, 1-(1-((1-(2-(2,6-dioxopiperidin-3-yl)-1,3-dioxoisoindolin-4-yl)piperidin-4-yl)methyl)piperidin-4-yl)-3-methyl-N-(2-((R)-1-methylpyrrolidin-2-yl)-1H-pyrrolo[3,2-c]pyridin-6-yl)-1H-indazole-6-carboxamide] | > 7.00 | B (Category B: 50%≤B<75% degradation) | A (Category A: A≥75% degradation) | A (Category A: A≥75% degradation)

Source: patent US20260199484A1, “PROTAC DEGRADERS OF MLLT1 AND/OR MLLT3” (DARK BLUE THERAPEUTICS LTD, priority 2024, published 2026)
